Laboratory results reported in patent publication US20240245793A1, “PSD-95 INHIBITORS AND USES THEREOF” (priority 2021, published 2024).
Like-named read-outs stand apart in the source and are kept apart here. Starred links: 1 amine or outer side, 2 acyl side, 3 side chain; linkers in the order of their positions; H or OH if unused. Positions of bridges follow the written chain, without caps; N, C: chain ends. Residues, ends and D or L forms follow the SMILES beside them. Chains are numbered I, II in the order given. CO(CH2CH2O)5CH2CH2CO = O=C(CCOCCOCCOCCOCCOCCC(=O)[*:2])[*:1]

Assays:
PDZ1-2 of PSD-95 = PDZ1-2 of PSD-95 (Homo sapiens, UniProt P78352); experiment: Fluorescence polarization (FP) competition assay, affinity to PDZ1-2 of PSD-95; type: binding; conditions: mean ± SEM
Sequence of PDZ1-2 of PSD-95 (P78352 61-249 limits assumed): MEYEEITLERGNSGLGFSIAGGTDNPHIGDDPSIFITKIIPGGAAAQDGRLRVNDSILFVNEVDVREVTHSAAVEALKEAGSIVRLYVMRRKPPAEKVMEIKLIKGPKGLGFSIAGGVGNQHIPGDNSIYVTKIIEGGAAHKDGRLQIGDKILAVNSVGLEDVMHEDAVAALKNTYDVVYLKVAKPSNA
Experimental: First, a saturation binding curve was obtained to determine KD values for the interaction between a fluorescent dimeric probe and PDZ1-2 of PSD-95. Increasing concentrations of PDZ1-2 (0.015-30 nM) were added to a constant concentration of the probe (0.5 nM). The fluorescence polarization (FP) of the sample was measured at excitation/emission wavelength of 635/670 nm and the generated FP values were fitted to a one site binding model using the software GraphPad Prism. […] The FP values were fitted to a one site competition (variable slope) model in GraphPad prism. The resulting IC50 values were converted to Ki values as described previously by Nikolovska-Coleska et al., Anal. Biochem., 2004, 332, 261).

plasmin = target: T1, plasmin (Homo sapiens, UniProt P00747); experiment: In vitro plasmin stability assay; type: in vitro ADME; conditions: isolated enzyme plasmin
T1 construct: Tissue plasminogen factor (tPA), which generates plasmin from plasminogen
T1 sequence (P00747 581-810 limits assumed, species assumed): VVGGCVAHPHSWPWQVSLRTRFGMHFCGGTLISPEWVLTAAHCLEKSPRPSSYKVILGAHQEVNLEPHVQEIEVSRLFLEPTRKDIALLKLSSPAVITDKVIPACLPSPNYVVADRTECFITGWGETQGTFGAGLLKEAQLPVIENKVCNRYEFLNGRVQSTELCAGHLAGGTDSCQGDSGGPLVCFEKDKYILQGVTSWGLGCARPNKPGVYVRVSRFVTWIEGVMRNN
T1 sequence (P00747 97-580 partner limits assumed, species assumed): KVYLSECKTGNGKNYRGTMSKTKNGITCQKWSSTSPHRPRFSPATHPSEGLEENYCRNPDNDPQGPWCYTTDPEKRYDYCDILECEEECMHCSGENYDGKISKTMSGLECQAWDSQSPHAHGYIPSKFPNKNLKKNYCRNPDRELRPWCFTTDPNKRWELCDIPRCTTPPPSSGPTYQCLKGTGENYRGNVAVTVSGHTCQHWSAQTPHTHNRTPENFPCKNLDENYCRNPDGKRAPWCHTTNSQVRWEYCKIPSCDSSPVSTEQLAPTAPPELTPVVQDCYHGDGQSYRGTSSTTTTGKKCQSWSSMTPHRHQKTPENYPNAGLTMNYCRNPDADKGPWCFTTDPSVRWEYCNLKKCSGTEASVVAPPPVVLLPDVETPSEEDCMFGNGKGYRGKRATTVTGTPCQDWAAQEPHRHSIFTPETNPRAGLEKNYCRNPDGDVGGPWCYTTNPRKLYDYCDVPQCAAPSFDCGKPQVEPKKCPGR
Experimental: At selected time points during the incubation, the ligands were extracted from 80 μL of assay matrix by treatment with 80 μL of 50% acetonitrile (ACN). The samples were filtered and analysed by UPLC to determine the amount of ligand remaining. LC-MS analysis was performed to confirm ligand integrity and identify cleavage sites.

[1] = OPEG4 dimers without CPP, n ≥ 3 (Table 4, FIG. 1)

How did the Ki (PDZ1-2 of PSD-95; [1]) turn out when CC(C)C[C@H](NC(=O)[C@@H](NC(=O)[C@H](CCC(=O)O)NC(=O)[C@H](CCCCN)NC(=O)CCOCCOCCOCCOCCOCCC(=O)N[C@@H](CCCCN)C(=O)N[C@@H](CCC(=O)O)C(=O)N[C@H](C(=O)N[C@@H](CC(C)C)C(=O)N[C@H](C(=O)O)C(C)C)[C@@H](C)O)[C@@H](C)O)C(=O)N[C@H](C(=O)O)C(C)C [Compound 2, OPEG4-(KETLV)2] was run?
The Ki was 11.1 ± 0.3 nM.

With CC(C)[C@H](NC(=O)[C@@H](NC(=O)[C@@H](NC(=O)[C@H](CCC(=O)O)NC(=O)[C@H](CCCCN)NC(=O)CCOCCOCCOCCOCCOCCC(=O)N[C@@H](CCCCN)C(=O)N[C@@H](CCC(=O)O)C(=O)N[C@H](C(=O)N[C@H](C(=O)N[C@H](C(=O)O)C(C)C)[C@@H](C)O)[C@@H](C)O)[C@@H](C)O)[C@@H](C)O)C(=O)O [Compound 3, OPEG4-(KETTV)2] as the compound, how does the Ki (PDZ1-2 of PSD-95; [1]) read?
Its Ki is 14.4 ± 0.4 nM.

How did the Ki (PDZ1-2 of PSD-95; [1]) turn out when CC(C)[C@H](NC(=O)[C@@H](NC(=O)[C@@H](NC(=O)[C@H](CCC(=O)O)NC(=O)[C@H](CCCCN)NC(=O)CCOCCOCCOCCOCCOCCC(=O)N[C@@H](CCCCN)C(=O)N[C@@H](CCC(=O)O)C(=O)N[C@H](C(=O)N[C@H](C(=O)N[C@H](C(=O)O)C(C)C)C(C)C)[C@@H](C)O)[C@@H](C)O)C(C)C)C(=O)O [Compound 4, OPEG4-(KETVV)2] (I: KETVV-OH / II: KETVV-OH; linker I:N-II:N via CO(CH2CH2O)5CH2CH2CO; C-terminus assumed) was run?
The Ki was 15.8 ± 1.2 nM.

CC(=O)N[C@@H](Cc1ccc(O)cc1)C(=O)NCC(=O)N[C@@H](CCCNC(=N)N)C(=O)N[C@@H](CCCCN)C(=O)N[C@@H](CCCCN)C(=O)N[C@@H](CCCNC(=N)N)C(=O)N[C@@H](CCCNC(=N)N)C(=O)N[C@@H](CCC(N)=O)C(=O)N[C@@H](CCCNC(=N)N)C(=O)N[C@@H](CCCNC(=N)N)C(=O)N[C@@H](CCCNC(=N)N)C(=O)N(CCOCCOCCC(=O)N[C@@H](CCCCN)C(=O)N[C@@H](CCC(=O)O)C(=O)N[C@H](C(=O)N[C@@H](CC(C)C)C(=O)N[C@H](C(=O)O)C(C)C)[C@@H](C)O)CCOCCOCCC(=O)N[C@@H](CCCCN)C(=O)N[C@@H](CCC(=O)O)C(=O)N[C@H](C(=O)N[C@@H](CC(C)C)C(=O)N[C@H](C(=O)O)C(C)C)[C@@H](C)O [Compound 11] was tested. Which Ki (PDZ1-2 of PSD-95; dimeric ligands fused to L-TAT and L-Arg9, n ≥ 3 (Table 5, FIG. 2)) did it give?
The Ki was 5.4 ± 0.9 nM.

What about the half-life (plasmin; read-out: T1/2) of the same compound?
Its half-life is 5.77 ± 1.75 h.

CC[C@@H](C)[C@@H](NC(=O)[C@@H](CCCCN)NC(=O)[C@H](NC(=O)[C@@H](CCC(N)=O)NC(=O)[C@@H](CCCNC(=N)N)NC(C)=O)[C@H](C)CC)C(=O)N[C@H](Cc1c[nH]c2ccccc12)C(=O)N[C@H](Cc1ccccc1)C(=O)N[C@H](CCC(N)=O)C(=O)N[C@H](CC(N)=O)C(=O)N[C@H](CCCNC(=N)N)C(=O)N[C@H](CCCNC(=N)N)C(=O)N[C@H](CCSC)C(=O)N[C@H](CCCCN)C(=O)N[C@H](Cc1c[nH]c2ccccc12)C(=O)N[C@H](CCCCN)C(=O)N[C@H](CCCCN)C(=O)N(CCOCCOCCC(=O)N[C@H](C(=O)N[C@@H](CCC(=O)O)C(=O)N[C@H](C(=O)N[C@@H](CC(=O)O)C(=O)N[C@H](C(=O)O)C(C)C)[C@@H](C)O)[C@@H](C)CC)CCOCCOCCC(=O)N[C@H](C(=O)N[C@@H](CCC(=O)O)C(=O)N[C@H](C(=O)N[C@@H](CC(=O)O)C(=O)N[C@H](C(=O)O)C(C)C)[C@@H](C)O)[C@@H](C)CC [Compound 48] was tested. Which half-life (plasmin; read-out: T1/2) did it give?
Its half-life is 24 h.

With CC[C@H](C)[C@H](NC(=O)CCOCCOCCN(CCOCCOCCC(=O)N[C@H](C(=O)N[C@@H](CCC(=O)O)C(=O)N[C@H](C(=O)N[C@@H](CC(=O)O)C(=O)N[C@H](C(=O)O)C(C)C)[C@@H](C)O)[C@@H](C)CC)C(=O)[C@H](CO)NC(=O)[C@H](CCC(=O)O)NC(=O)[C@H](CCCNC(=N)N)NC(=O)[C@H](CCCNC(=N)N)NC(=O)[C@H](CCCNC(=N)N)NC(=O)[C@H](CCCCN)NC(=O)[C@H](CCCCN)NC(=O)[C@H](CCCNC(=N)N)NC(=O)[C@H](CO)NC(=O)[C@H](CCC(=O)O)NC(=O)[C@H](CCCNC(=N)N)NC(=O)[C@H](CCCNC(=N)N)NC(=O)[C@H](CCCNC(=N)N)NC(=O)[C@H](CCCCN)NC(=O)[C@H](CCCCN)NC(=O)[C@H](CCCNC(=N)N)NC(C)=O)C(=O)N[C@@H](CCC(=O)O)C(=O)N[C@H](C(=O)N[C@@H](CC(=O)O)C(=O)N[C@H](C(=O)O)C(C)C)[C@@H](C)O [Compound 50] as the compound, how does the half-life at 100 μM (plasmin) read?
Its half-life at 100 μM is 2.82 ± 0.333 h.

CC[C@H](C)[C@H](NC(=O)CCOCCOCCN(CCOCCOCCC(=O)N[C@H](C(=O)N[C@@H](CCC(=O)O)C(=O)N[C@H](C(=O)N[C@@H](CC(=O)O)C(=O)N[C@H](C(=O)O)C(C)C)[C@@H](C)O)[C@@H](C)CC)C(=O)[C@H](CCCCN)NC(=O)[C@H](CO)NC(=O)[C@H](Cc1c[nH]cn1)NC(=O)[C@H](C)NC(=O)[C@H](Cc1c[nH]cn1)NC(=O)[C@H](C)NC(=O)[C@H](CCC(N)=O)NC(=O)[C@H](CCCCN)NC(=O)[C@H](CCCNC(=N)N)NC(=O)[C@@H](NC(=O)[C@H](CCCNC(=N)N)NC(=O)[C@H](CCCNC(=N)N)NC(=O)[C@H](CCCNC(=N)N)NC(=O)[C@H](CC(C)C)NC(=O)[C@@H](NC(=O)[C@@H](NC(=O)[C@H](CC(C)C)NC(=O)[C@H](CC(C)C)NC(C)=O)[C@@H](C)CC)[C@@H](C)CC)[C@@H](C)CC)C(=O)N[C@@H](CCC(=O)O)C(=O)N[C@H](C(=O)N[C@@H](CC(=O)O)C(=O)N[C@H](C(=O)O)C(C)C)[C@@H](C)O [Compound 52] was tested. Which half-life at 100 μM (plasmin) did it give?
The half-life at 100 μM was 0.817 ± 0.15 h.

How did the half-life at 100 μM (plasmin) turn out when CC[C@H](C)[C@H](NC(=O)CCOCCOCCN(CCOCCOCCC(=O)N[C@H](C(=O)N[C@@H](CCC(=O)O)C(=O)N[C@H](C(=O)N[C@@H](CC(=O)O)C(=O)N[C@H](C(=O)O)C(C)C)[C@@H](C)O)[C@@H](C)CC)C(=O)[C@H](C)NC(=O)[C@H](CC(C)C)NC(=O)[C@H](CCCCN)NC(=O)[C@H](CC(C)C)NC(=O)[C@H](C)NC(=O)[C@H](C)NC(=O)[C@H](CCCCN)NC(=O)[C@H](CC(C)C)NC(=O)[C@H](C)NC(=O)[C@H](CCCCN)NC(=O)[C@H](CC(C)C)NC(=O)[C@H](C)NC(=O)[C@H](CC(C)C)NC(=O)[C@H](CCCCN)NC(=O)[C@H](CC(C)C)NC(=O)[C@H](C)NC(=O)[C@H](CC(C)C)NC(=O)[C@H](CCCCN)NC(C)=O)C(=O)N[C@@H](CCC(=O)O)C(=O)N[C@H](C(=O)N[C@@H](CC(=O)O)C(=O)N[C@H](C(=O)O)C(C)C)[C@@H](C)O [Compound 54] was run?
Its half-life at 100 μM is 0.217 ± 0.0667 h.

With CC[C@H](C)[C@H](NC(=O)CCOCCOCCN(CCOCCOCCC(=O)N[C@H](C(=O)N[C@@H](CCC(=O)O)C(=O)N[C@H](C(=O)N[C@@H](CC(=O)O)C(=O)N[C@H](C(=O)O)C(C)C)[C@@H](C)O)[C@@H](C)CC)C(=O)[C@H](Cc1ccccc1)NC(=O)[C@H](CCC(N)=O)NC(=O)CNC(=O)[C@H](CCCNC(=N)N)NC(=O)[C@H](CC(C)C)NC(=O)[C@H](CC(C)C)NC(=O)[C@H](CCCNC(=N)N)NC(=O)[C@H](CC(C)C)NC(=O)[C@H](Cc1ccc(O)cc1)NC(=O)[C@@H](NC(=O)[C@H](CC(C)C)NC(=O)[C@@H]1CCCN1C(C)=O)[C@@H](C)CC)C(=O)N[C@@H](CCC(=O)O)C(=O)N[C@H](C(=O)N[C@@H](CC(=O)O)C(=O)N[C@H](C(=O)O)C(C)C)[C@@H](C)O [Compound 56] as the compound, how does the half-life at 100 μM (plasmin) read?
The half-life at 100 μM was 15.2 h.

With CC[C@@H](C)[C@@H](NC(=O)[C@@H](CC(C)C)NC(=O)[C@H]1CCCN1C(C)=O)C(=O)N[C@H](Cc1ccc(O)cc1)C(=O)N[C@H](CC(C)C)C(=O)N[C@H](CCCNC(=N)N)C(=O)N[C@H](CC(C)C)C(=O)N[C@H](CC(C)C)C(=O)N[C@H](CCCNC(=N)N)C(=O)NCC(=O)N[C@H](CCC(N)=O)C(=O)N[C@H](Cc1ccccc1)C(=O)N(CCOCCOCCC(=O)N[C@H](C(=O)N[C@@H](CCC(=O)O)C(=O)N[C@H](C(=O)N[C@@H](CC(=O)O)C(=O)N[C@H](C(=O)O)C(C)C)[C@@H](C)O)[C@@H](C)CC)CCOCCOCCC(=O)N[C@H](C(=O)N[C@@H](CCC(=O)O)C(=O)N[C@H](C(=O)N[C@@H](CC(=O)O)C(=O)N[C@H](C(=O)O)C(C)C)[C@@H](C)O)[C@@H](C)CC [Compound 58] as the compound, how does the half-life at 100 μM (plasmin) read?
Its half-life at 100 μM is 24 h.

Which half-life at 100 μM (plasmin; read-out: T1/2) does the source give for CC[C@H](C)[C@H](NC(=O)CCOCCOCCN(CCOCCOCCC(=O)N[C@H](C(=O)N[C@@H](CCC(=O)O)C(=O)N[C@H](C(=O)N[C@@H](CC(=O)O)C(=O)N[C@H](C(=O)O)C(C)C)[C@@H](C)O)[C@@H](C)CC)C(=O)[C@@H]1CC(=O)NC[C@H](NC(C)=O)C(=O)N[C@@H](CCCCN)C(=O)N[C@@H](C)C(=O)N2CCC[C@H]2C(=O)N[C@@H](CCC(=O)O)C(=O)N[C@@H]([C@@H](C)O)C(=O)N[C@@H](C)C(=O)N[C@@H](CC(C)C)C(=O)N1)C(=O)N[C@@H](CCC(=O)O)C(=O)N[C@H](C(=O)N[C@@H](CC(=O)O)C(=O)N[C@H](C(=O)O)C(C)C)[C@@H](C)O [Compound 60] here?
The half-life at 100 μM was 24 h.

CC[C@H](C)[C@H](NC(=O)CCOCCOCCN(CCOCCOCCC(=O)N[C@H](C(=O)N[C@@H](CCC(=O)O)C(=O)N[C@H](C(=O)N[C@@H](CC(=O)O)C(=O)N[C@H](C(=O)O)C(C)C)[C@@H](C)O)[C@@H](C)CC)C(=O)[C@H](CCCCN)NC(=O)CCCNC(=O)CC[C@@H]1NC(=O)[C@@H](CCCNC(=N)N)NC(=O)[C@H](CCCNC(=N)N)NC(=O)[C@@H](CCCNC(=N)N)NC(=O)[C@H](CCCNC(=N)N)NC(=O)[C@H](Cc2ccc3ccccc3c2)NC(=O)[C@@H](Cc2ccccc2)NC(=O)[C@H](Cc2ccccc2)NC1=O)C(=O)N[C@@H](CCC(=O)O)C(=O)N[C@H](C(=O)N[C@@H](CC(=O)O)C(=O)N[C@H](C(=O)O)C(C)C)[C@@H](C)O [Compound 62] was tested. Which half-life at 100 μM (plasmin) did it give?
Its half-life at 100 μM is 24 h.
